Experimental data reported in US20130338152A1, “FLUOROPHENYL BICYCLIC HETEROARYL COMPOUNDS” (IRM LLC, priority 2011, published 2013).

Assays:
IGF1R [1] = biological target: T1, IGF1R (Homo sapiens, UniProt P08069); test: Enzymatic kinase assay (filter-binding/flashplate); assay type: biochemical
Description: (§1) Two methods were used to analyze phosphorylated peptides and proteins produced by the listed tyrosine and serine/threonine-specific protein kinases: either using a filter-binding assay (FB), or using a flashplate assay (FP). The activities of protein kinases were assayed in the presence or absence of inhibitors, by measuring the incorporation of ^33P from [γ^33P]ATP into appropriate substrates.
(§2) 96-well polypropylene microplates were used to assay the activity in the FB mode. To determine the inhibitory activity of compounds 10 μL of compound dilutions were pipetted into 96-well plates followed by the addition of 10 μL of assay mix and 10 μL of individual enzymes. With the addition of the enzymes the reactions were initiated and continued at RT. […] The final concentration of DMSO in the enzyme assays was 1%.
(§3) Flashplates are available as 96-well standard (STFPs) or as streptavidin-(SAFPs) or nickel coated FPs (NiFPs) from Perkin Elmer. STFPs are 96-well polystyrene microplates in which the interior of each well is permanently coated with a thin layer of polystyrene-based scintillant. Streptavidin flashplates (SAFP) are 96 or 384-well STFPs coated with streptavidin. SAFPs are suitable for a wide variety of assay applications which utilize biotinylated capture molecules. NiFP or nickel chelate flashplates are 96- or 384-well STFPs coated with nickel chelate. NiFPs are designed for in-plate, radiometric assays which utilize 4- or 6-histidine tagged proteins and peptides.
(§4) All kinase assays were performed in STFPs for 60 mins at RT and stopped with 50 μL of 0.5% H3PO4 except PKA which were carried out in polypropylene 96- and 384-well plates, respectively. […] All wells were then washed three times with 200 μL of 0.5% H3PO4 and the plates were dried at room temperature. The plates were sealed and counted in a microplate scintillation counter (TopCount NXT, TopCount NXT HTS). The final concentration of DMSO in the enzyme assays was 1%.

InsR = InsR (Homo sapiens, UniProt P06213); test: Enzymatic kinase assay (filter-binding/flashplate); assay type: biochemical; conditions: enzymatic; read-out: InsR IC50 values
Description: as §1, §2, §3, §4

IGF1R [2] = biological target: T1, IGF1R; test: Cellular IGF-1R assay: inhibition of IGF1R phosphorylation in Hek293 cells, capture ELISA (MSD); assay type: cell-based; parameters: expressed in transfected cells; host or cells: Hek293 (Hek293-IGF1R); conditions: IGF-triggered receptor phosphorylation
Description: IVa. Cellular IGF-1R and InsR Assays
Compound-mediated inhibition of IGF1R and INSR phosphorylation in Hek293 cells transduced with the corresponding receptors is assessed in a capture ELISA format using the MSD (Meso Scale Discovery) platform. Briefly, 30′000 cells washed and diluted in starvation medium (DMEM high glucose supplemented with 0.1% BSA) are seeded in 90 μL per well into 96-well plates pre-coated with poly-D-lysine (0.1 mg/mL in PBS/O). After 24 h incubation at 37° C. and 5% CO2, dose-response effects are determined with 3-fold serial compound dilutions, starting at 10 μM. The final vehicle concentration is 0.1% DMSO in all wells. Following pre-incubation with compounds for 1 h, receptor phosphorylation is triggered by a 10 min exposure to 1.0 ng/μL IGF for Hek293-IGF1R cells, and 5.0 ng/μL insulin for Hek293-InsR cells. Cell lysis is achieved by addition of 80 μL MSD lysis buffer per aspirated well, incubation on ice for 20 min, and a freeze-thaw cycle. Target phosphorylation is then assessed by transferring volumes corresponding to approx. 6 μg Hek293-IGF1R or 0.6 μg Hek293-InsR lysates to MSD assay plates pre-coated with total-IGF1R or total-InsR Abs, respectively. […] Immune complexes are detected by a SULFO-Tag™-coupled anti-rabbit IgG antibody in the presence of 150 μL MSD read-buffer. Light emission at 620 nm triggered by application of electric current is recorded on a MSD Sectorlmager 6000. Acquired raw data (mean Ru-ECL units) are processed in an Excel analysis template. The plate blank (MSD lysis buffer) is subtracted from all data points. The effect of a particular test compound concentration on receptor phosphorylation is expressed relative to the window defined by ligand-stimulated vs unstimulated control cells (set as 100%). IC50 values [nM] are determined using 4-parametric curve-fitting (XLfit software, V4.3.2).

EphA4 = EphA4 (Homo sapiens, UniProt P54764); test: Enzymatic kinase assay; assay type: biochemical
Description: as §1, §2, §3, §4

COT1 = COT1 (Homo sapiens, UniProt P41279); test: Enzymatic kinase assay; assay type: biochemical
Description: as §1, §2, §3, §4

TYK2 = TYK2 (Homo sapiens, UniProt P29597); test: Enzymatic kinase assay; assay type: biochemical
Description: as §1, §2, §3, §4

LCK = LCK (Homo sapiens, UniProt P06239); test: Enzymatic kinase assay; assay type: biochemical
Description: as §1, §2, §3, §4

cABLT315 = cABLT315 (Homo sapiens, UniProt P00519, T315I); test: Enzymatic kinase assay; assay type: biochemical
Description: as §1, §2, §3, §4

MK2 = MK2 (Homo sapiens, UniProt P49137); test: Enzymatic kinase assay; assay type: biochemical
Description: as §1, §2, §3, §4

ERK2 = ERK2 (Homo sapiens, UniProt P28482); test: Enzymatic kinase assay; assay type: biochemical
Description: as §1, §2, §3, §4

KDR = KDR (Homo sapiens, UniProt P35968); test: Enzymatic kinase assay; assay type: biochemical
Description: as §1, §2, §3, §4

CDK2A = CDK2A (Homo sapiens, UniProt P24941); test: Enzymatic kinase assay; assay type: biochemical
Description: as §1, §2, §3, §4

RET = RET (Homo sapiens, UniProt P07949); test: Enzymatic kinase assay; assay type: biochemical; conditions: enzymatic; read-out: RET IC50 values (converted)
Description: as §1, §2, §3, §4

Aurora A = biological target: T2, Aurora A (Homo sapiens, UniProt O14965); test: Enzymatic kinase assay; assay type: biochemical
T2 sequence (O14965 1-403): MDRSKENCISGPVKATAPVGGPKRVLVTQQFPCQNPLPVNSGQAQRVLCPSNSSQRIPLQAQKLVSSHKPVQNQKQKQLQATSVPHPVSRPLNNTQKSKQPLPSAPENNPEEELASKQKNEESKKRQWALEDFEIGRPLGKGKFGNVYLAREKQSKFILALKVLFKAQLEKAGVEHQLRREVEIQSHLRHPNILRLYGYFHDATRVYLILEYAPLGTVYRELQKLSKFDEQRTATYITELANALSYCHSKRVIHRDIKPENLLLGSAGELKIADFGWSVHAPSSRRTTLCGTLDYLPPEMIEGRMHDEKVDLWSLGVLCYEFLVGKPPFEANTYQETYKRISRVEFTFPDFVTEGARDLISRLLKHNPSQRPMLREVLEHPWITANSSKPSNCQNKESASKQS
Description: as §1, §2, §3, §4

cKIT = cKIT (Homo sapiens, UniProt P10721); test: Enzymatic kinase assay; assay type: biochemical
Description: as §1, §2, §3, §4

P38a = P38a (Homo sapiens, UniProt Q16539); test: Enzymatic kinase assay; assay type: biochemical
Description: as §1, §2, §3, §4

PDGFRa = PDGFRa (Homo sapiens, UniProt P16234); test: Enzymatic kinase assay; assay type: biochemical
Description: as §1, §2, §3, §4

HER2 = HER2 (Homo sapiens, UniProt P04626); test: Enzymatic kinase assay; assay type: biochemical
Description: as §1, §2, §3, §4

FGFR-4 = FGFR-4 (Homo sapiens, UniProt P22455); test: Enzymatic kinase assay; assay type: biochemical
Description: as §1, §2, §3, §4

cMET = cMET (Homo sapiens, UniProt P08581); test: Enzymatic kinase assay; assay type: biochemical
Description: as §1, §2, §3, §4

GSK3beta = GSK3beta (Homo sapiens, UniProt P49841); test: Enzymatic kinase assay; assay type: biochemical
Description: as §1, §2, §3, §4

JAK2 = JAK2 (Homo sapiens, UniProt O60674); test: Enzymatic kinase assay; assay type: biochemical
Description: as §1, §2, §3, §4

hERG channels = hERG channels (Homo sapiens, UniProt Q12809); test: biochemical
Sequence of hERG channels (Q12809 whole entry): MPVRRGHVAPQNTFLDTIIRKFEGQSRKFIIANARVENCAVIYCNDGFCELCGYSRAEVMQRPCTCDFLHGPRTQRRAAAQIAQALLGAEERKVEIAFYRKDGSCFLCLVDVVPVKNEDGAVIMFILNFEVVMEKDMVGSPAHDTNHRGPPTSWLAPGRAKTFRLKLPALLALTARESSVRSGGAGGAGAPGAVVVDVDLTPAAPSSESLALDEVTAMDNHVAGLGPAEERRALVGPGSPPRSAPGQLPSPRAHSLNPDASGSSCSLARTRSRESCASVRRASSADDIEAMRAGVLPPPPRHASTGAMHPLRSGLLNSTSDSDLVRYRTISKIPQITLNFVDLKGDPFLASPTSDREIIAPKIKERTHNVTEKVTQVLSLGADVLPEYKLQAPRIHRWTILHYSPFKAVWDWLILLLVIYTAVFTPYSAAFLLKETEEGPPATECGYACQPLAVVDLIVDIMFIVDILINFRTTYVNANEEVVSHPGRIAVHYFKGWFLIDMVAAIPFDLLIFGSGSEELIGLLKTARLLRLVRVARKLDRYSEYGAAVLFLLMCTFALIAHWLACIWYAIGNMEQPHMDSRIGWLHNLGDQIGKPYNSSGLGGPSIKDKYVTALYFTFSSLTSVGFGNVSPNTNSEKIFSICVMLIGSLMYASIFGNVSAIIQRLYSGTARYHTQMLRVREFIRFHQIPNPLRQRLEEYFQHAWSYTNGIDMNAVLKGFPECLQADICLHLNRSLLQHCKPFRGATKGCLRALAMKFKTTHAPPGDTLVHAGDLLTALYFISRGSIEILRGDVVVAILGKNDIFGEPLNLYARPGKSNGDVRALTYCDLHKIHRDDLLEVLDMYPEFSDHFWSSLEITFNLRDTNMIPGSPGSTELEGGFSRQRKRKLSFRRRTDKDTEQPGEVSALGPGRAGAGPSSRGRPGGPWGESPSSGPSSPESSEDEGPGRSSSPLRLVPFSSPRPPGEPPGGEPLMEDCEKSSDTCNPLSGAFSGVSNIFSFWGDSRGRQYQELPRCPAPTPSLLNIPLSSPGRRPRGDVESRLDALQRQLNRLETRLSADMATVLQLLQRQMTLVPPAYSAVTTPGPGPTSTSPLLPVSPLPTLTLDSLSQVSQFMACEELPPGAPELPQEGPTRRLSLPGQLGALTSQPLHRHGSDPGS

Sequence of cKIT (P10721 26-976): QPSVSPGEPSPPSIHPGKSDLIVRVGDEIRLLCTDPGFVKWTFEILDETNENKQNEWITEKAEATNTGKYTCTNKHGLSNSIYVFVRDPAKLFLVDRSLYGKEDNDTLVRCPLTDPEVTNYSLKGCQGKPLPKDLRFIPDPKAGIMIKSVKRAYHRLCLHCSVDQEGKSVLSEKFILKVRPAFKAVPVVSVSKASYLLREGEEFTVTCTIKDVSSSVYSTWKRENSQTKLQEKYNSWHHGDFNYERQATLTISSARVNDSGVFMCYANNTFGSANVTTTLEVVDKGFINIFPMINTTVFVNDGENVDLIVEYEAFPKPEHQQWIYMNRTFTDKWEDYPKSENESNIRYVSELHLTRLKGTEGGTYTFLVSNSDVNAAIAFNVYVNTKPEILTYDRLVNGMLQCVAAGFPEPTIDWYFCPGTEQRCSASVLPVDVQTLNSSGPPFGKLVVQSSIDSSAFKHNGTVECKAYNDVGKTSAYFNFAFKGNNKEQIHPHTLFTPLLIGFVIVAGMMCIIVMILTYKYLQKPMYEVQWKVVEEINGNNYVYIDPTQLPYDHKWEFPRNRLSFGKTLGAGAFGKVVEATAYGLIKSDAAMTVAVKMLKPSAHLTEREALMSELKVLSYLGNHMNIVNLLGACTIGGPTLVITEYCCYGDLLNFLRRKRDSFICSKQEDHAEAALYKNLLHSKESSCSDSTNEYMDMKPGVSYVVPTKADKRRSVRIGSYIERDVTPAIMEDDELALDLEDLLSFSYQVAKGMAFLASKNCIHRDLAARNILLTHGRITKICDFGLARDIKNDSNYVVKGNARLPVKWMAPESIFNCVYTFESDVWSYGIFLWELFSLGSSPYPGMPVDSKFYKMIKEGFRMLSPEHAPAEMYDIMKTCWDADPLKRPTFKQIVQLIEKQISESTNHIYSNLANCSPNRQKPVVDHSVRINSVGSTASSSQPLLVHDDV
Sequence of LCK (P06239 whole entry, species assumed): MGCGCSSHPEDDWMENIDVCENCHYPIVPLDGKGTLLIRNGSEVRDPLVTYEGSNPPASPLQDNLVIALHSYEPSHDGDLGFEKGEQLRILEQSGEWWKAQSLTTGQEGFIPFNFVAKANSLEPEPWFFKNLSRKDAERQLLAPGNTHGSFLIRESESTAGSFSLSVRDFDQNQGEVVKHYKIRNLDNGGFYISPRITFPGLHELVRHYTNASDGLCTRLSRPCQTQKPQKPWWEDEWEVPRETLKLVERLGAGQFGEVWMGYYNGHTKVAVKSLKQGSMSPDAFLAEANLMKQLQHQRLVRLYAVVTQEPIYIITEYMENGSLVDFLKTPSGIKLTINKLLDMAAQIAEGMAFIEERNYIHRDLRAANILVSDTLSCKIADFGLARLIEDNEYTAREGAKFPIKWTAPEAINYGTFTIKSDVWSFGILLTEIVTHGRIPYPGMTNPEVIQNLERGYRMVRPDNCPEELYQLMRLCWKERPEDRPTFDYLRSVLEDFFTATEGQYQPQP
Sequence of JAK2 (O60674 whole entry, species assumed): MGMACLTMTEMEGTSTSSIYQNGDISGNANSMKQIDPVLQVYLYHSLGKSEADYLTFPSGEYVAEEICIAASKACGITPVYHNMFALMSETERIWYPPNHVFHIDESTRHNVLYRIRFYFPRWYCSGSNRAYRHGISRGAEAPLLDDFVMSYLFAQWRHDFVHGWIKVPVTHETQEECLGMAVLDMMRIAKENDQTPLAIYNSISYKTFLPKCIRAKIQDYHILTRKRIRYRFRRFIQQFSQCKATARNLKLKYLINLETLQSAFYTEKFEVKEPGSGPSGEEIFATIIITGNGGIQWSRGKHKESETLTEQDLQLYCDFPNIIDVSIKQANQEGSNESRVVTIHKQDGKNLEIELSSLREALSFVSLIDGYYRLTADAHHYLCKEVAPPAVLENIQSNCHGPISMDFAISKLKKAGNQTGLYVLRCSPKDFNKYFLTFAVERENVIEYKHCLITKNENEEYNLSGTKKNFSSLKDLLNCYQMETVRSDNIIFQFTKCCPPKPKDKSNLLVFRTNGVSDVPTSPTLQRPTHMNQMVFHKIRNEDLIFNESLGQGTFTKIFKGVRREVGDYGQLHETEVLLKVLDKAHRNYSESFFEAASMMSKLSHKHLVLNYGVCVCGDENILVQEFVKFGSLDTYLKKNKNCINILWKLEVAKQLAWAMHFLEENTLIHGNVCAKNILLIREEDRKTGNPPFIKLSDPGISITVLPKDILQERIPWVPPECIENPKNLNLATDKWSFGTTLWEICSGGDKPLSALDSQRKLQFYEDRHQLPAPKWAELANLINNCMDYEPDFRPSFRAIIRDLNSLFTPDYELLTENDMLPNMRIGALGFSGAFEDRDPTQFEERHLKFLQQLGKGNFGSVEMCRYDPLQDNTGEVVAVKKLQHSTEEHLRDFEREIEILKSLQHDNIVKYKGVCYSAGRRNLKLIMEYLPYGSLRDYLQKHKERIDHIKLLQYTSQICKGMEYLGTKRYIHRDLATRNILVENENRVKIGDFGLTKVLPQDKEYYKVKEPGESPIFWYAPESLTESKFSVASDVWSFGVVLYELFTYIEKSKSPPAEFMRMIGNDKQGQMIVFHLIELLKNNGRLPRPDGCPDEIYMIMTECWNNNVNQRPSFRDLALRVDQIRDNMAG
Sequence of EphA4 (P54764 20-986, species assumed): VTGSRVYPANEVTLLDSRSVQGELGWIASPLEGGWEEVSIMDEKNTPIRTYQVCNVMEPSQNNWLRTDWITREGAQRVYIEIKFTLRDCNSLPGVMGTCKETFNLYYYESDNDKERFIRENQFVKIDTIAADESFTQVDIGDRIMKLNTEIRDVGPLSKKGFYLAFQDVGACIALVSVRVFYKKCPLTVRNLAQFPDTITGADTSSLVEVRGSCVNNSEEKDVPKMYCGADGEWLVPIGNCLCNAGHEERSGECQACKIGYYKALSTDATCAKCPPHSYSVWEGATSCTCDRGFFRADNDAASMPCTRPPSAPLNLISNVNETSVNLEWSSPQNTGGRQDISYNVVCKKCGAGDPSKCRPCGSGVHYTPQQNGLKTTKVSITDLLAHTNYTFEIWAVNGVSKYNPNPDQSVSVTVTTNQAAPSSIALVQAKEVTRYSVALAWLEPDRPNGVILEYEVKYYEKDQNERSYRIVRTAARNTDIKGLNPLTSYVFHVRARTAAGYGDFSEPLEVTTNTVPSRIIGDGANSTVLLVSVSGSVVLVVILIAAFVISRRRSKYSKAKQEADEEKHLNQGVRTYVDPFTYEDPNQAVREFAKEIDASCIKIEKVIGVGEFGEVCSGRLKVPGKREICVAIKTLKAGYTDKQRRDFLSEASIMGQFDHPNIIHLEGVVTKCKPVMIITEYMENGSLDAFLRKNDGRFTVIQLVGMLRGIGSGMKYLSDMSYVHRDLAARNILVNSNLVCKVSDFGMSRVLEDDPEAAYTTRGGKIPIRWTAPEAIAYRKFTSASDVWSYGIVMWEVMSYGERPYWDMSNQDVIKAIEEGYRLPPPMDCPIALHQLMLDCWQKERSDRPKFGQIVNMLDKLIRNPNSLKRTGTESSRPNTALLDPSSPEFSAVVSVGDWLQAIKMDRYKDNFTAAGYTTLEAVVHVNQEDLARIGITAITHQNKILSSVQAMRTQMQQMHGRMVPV
Sequence of ERK2 (P28482 whole entry, species assumed): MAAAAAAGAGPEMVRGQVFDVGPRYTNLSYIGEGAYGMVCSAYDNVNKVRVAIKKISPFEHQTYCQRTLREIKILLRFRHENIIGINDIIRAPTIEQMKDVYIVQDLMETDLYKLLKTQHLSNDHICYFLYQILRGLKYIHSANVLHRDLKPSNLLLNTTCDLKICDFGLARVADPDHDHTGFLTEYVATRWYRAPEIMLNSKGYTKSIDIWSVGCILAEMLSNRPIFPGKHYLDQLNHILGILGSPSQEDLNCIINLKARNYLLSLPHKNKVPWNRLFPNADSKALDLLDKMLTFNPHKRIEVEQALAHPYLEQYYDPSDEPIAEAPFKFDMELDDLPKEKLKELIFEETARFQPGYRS

SMILES | IC50 (InsR) [µM] | IC50 (EphA4) [µM] | IC50 (COT1) [µM] | IC50 (TYK2) [µM] | IC50 (LCK) [µM] | IC50 (cABLT315) [µM] | IC50 (MK2) [µM] | IC50 (ERK2) [µM] | IC50 (KDR) [µM] | IC50 (CDK2A) [µM] | IC50 (RET) [µM] | IC50 (Aurora A) [µM] | IC50 (cKIT) [µM] | IC50 (P38a) [µM] | IC50 (PDGFRa) [µM] | IC50 (HER2) [µM] | IC50 (FGFR-4) [µM] | IC50 (cMET) [µM] | IC50 (GSK3beta) [µM] | IC50 (JAK2) [µM] | other results
Nc1ncnc2c1c(-c1cccc(OCC3CCCO3)c1F)cn2[C@H]1C[C@@H](CN2CCS(=O)(=O)CC2)C1 (mixture of isomers) [Example 1, 7-[3-(1,1-Dioxo-1-thiomorpholin-4-ylmethyl)-cyclobutyl]-5-[2-fluoro-3-(tetrahydro-furan-2-ylmethoxy)-phenyl]-7H-pyrrolo[2,3-d]pyrimidin-4-ylamine] | 0.038 | > 10 | > 10 | > 10 | > 10 | > 10 | > 10 | > 10 | 2.4 | > 10 | 2 | 7 | > 10 | > 10 | 6.3 | > 10 | > 10 | > 10 | > 10 | > 10 | IC50 (IGF1R [1]): 0.0042 µM; IC50 (IGF1R [2]): 0.005 µM
Nc1ncnc2c1c(-c1cc(OCC34CCC(CC3)O4)ccc1F)cn2[C@H]1C[C@@H](N2CC[S+]([O-])CC2)C1 (relative stereo) [Example 34, 5-[2-Fluoro-5-(7-oxa-bicyclo[2.2.1]hept-1-ylmethoxy)-phenyl]-7-[cis-3-(1-oxo-thiomorpholin-4-yl)-cyclobutyl]-7H-pyrrolo[2,3-d]pyrimidin-4-ylamine] | 0.075 | > 10 | > 10 | > 10 | > 10 | > 10 | > 10 | > 10 | > 10 | > 10 | > 10 | > 10 | > 10 | > 10 | > 10 | > 10 | > 10 | > 10 | > 10 | > 10 | IC50 (IGF1R [1]): 0.0084 µM
[2H]C1([2H])C([2H])([2H])C2(COc3ccc(F)c(-c4cn([C@H]5C[C@@H](N6CCN(C(C)=O)CC6)C5)c5ncnc(N)c45)c3)OC1([2H])C([2H])([2H])C2([2H])[2H] [Example 10, d9-1-[4-(cis-3-{4-Amino-5-[2-fluoro-5-(7-oxa-bicyclo[2.2.1]hept-1-ylmethoxy)-phenyl]-pyrrolo[2,3-d]pyrimidin-7-yl}-cyclobutyl)-piperazin-1-yl]-ethanone] | 0.081 | > 10 | > 10 | > 10 | 6.6 | > 10 | > 10 | > 10 | > 10 | > 10 | 6.4 | > 10 | > 10 | > 10 | > 10 | > 10 | > 10 | > 10 | > 10 | > 10 | IC50 (hERG channels): 6.8 µM
[2H]C1([2H])C([2H])([2H])C2(COc3cccc(-c4cn([C@H]5C[C@](O)(CO)C5)c5ncnc(N)c45)c3F)OC1([2H])C([2H])([2H])C2([2H])[2H] [Example 27, d9-(Z)-3-{4-Amino-5-[2-fluoro-3-(7-oxa-bicyclo[2.2.1]hept-1-ylmethoxy)-phenyl]-pyrrolo[2,3-d]pyrimidin-7-yl}-1-hydroxymethyl-cyclobutanol] | 0.13 | > 10 | > 10 | > 10 | 6.6 | > 10 | > 10 | > 10 | > 10 | > 10 | > 10 | > 10 | > 10 | > 10 | > 10 | > 10 | > 10 | > 10 | > 10 | > 10 | IC50 (IGF1R [1]): 0.022 µM; IC50 (hERG channels): > 30 µM
CC(=O)N1CCN([C@H]2C[C@H](n3cc(-c4cc(OC[C@@H]5CCCO5)ccc4F)c4c(N)ncnc43)C2)CC1 [Example 36, 1-{4-[trans-3-(4-Amino-5-{2-fluoro-5-[(S)-1-(tetrahydro-furan-2-yl)methoxy]-phenyl}-pyrrolo[2,3-d]pyrimidin-7-yl)-cyclobutyl]-piperazin-1-yl}-ethanone] | 1.3 | > 10 | > 10 | > 10 | 9.7 | > 10 | > 10 | > 10 | > 10 | > 10 | 3.1 | > 10 | > 10 | > 10 | > 10 | > 10 | > 10 | > 10 | > 10 | > 10 | IC50 (IGF1R [1]): 0.03 µM; IC50 (hERG channels): > 30 µM
C[C@]1(O)C[C@@H](c2nc(-c3ccc4ccc(-c5ccccc5)nc4c3)c3c(N)nccn32)C1 [Linsitinib, reference compound] | – | > 10 | > 10 | – | – | – | – | – | – | – | – | – | > 10 | – | > 10 | – | > 10 | – | – | – | IC50 (hERG channels): 2.65 µM
